The results in this text go back to US20200316067A1, “COMBINATION OF RAF INHIBITORS AND TAXANES” (DOT Therapeutics-1, Inc., priority 2014, published 2020).

Data set [1] relates to N-Ras mutated SK-MEL-2 human melanoma xenograft. Put plainly: In vivo tumor efficacy, N-Ras mutated SK-MEL-2 human melanoma xenograft model. Also on record: species or system Mouse (Mus musculus) Athymic NCr-nu/nu. Particulars: Day 20. A general note: A xenograft is tissue or cells of one species grown in another, often human tumour cells in immunodeficient mice.
Data set [2] in a line: Body weight loss in the SK-MEL-2 xenograft study. The format is in vivo, Mouse (Mus musculus) Athymic NCr-nu/nu. Here is the method:
Tumor size and body weight were measured BIW beginning on the first day of treatment. Animals were terminated when their tumor reached approximately 2000 mm^3, and the study was terminated on Day 62 post treatment initiation.

Data set [3] deals with Calu-6 lung cancer model (KRAS Q61K). Put plainly: In vivo tumor efficacy, KRAS mutated Calu-6 human lung carcinoma model. Also noted: species or system Mouse (Mus musculus) Athymic Balb/c Nude. Particulars: for TGI: Day 21.
Data set [4] can be described thus: Body weight loss in the Calu-6 xenograft study. The format is in vivo, Mouse (Mus musculus) Athymic Balb/c Nude. Here is the method: Each animal was inoculated with 2×10^6 Calu-6 tumor cells (in 0.1 mL, 1:1 with Matrigel) at the right flank for tumor model development. Body weight and the tumor growth were monitored twice weekly. Tumor size was measured to the nearest 0.1 mm using vernier caliper and applying the formula V=W^2×L/2, where V=volume, W=width, and L=length for the tumor xenograft. Xenografts were allowed to grow until they reached an average size of approximately 220 mm^3 after 14 days.
Tumor size and body weight were measured twice weekly beginning on the day of animal grouping. The study was terminated on Day 35 post treatment initiation.

In data set [5] the test system is tumor cells with N-Ras mutation and K-Ras mutation, B-Raf wild type genetic background. Briefly: Activity against tumor cells with MAPK pathway activation by upstream signaling. It is filed as cell-based.
The subject of data set [6] is melanoma tumor cells which developed resistance to vemurafenib. Briefly: Activity against vemurafenib-resistant melanoma tumor cells. It is filed as cell-based.
Where [7] appears, read: Compound A 12.5 mg/kg PO QD Days 1-21.

By TGI is commonly meant how far tumour growth fell short of that in controls. Read a high TGI as much slowing of growth. Take `C[C@@H](NC(=O)c1ncnc(N)c1Cl)c1ncc(C(=O)Nc2cc(C(F)(F)F)c(Cl)cn2)s1` [Compound A, (R)-2-(1-(6-amino-5-chloropyrimidine-4-carboxamide)ethyl)-N-(5-chloro-4-(trifluoromethyl)pyridin-2-yl)thiazole-5-carboxamide]: the values for the TGI in data set [1] (Compound A 50 mg/kg PO BIW), in data set [3] (setting [7]) and in data set [3] (Compound A 50 mg/kg PO BIW) were 62.9%, 58.9% and 59.4%, respectively. For the same compound, the “Mean Maximum BWL” value is 1% (Days 3 in data set [2] (Compound A 12.5 mg/kg PO QD Days 0-20, Days 3 and 10); 4% (Day 17) in data set [2] (Compound A 50 mg/kg PO BIW, Day 17). Moreover, the figures for the ΔAUC in data set [3] (setting [7]) and in data set [3] (Compound A 50 mg/kg PO BIW) were 55.4 and 62.7, respectively. Further, the “Mean Maximum % BWL” value in data set [4] (Compound A 12.5 mg/kg PO QD, Day 0 to Day 21) is given as 0%; in data set [4] (Compound A 50 mg/kg PO BIW, Day 7), −0.1% (Day 7). Also, the “activity against tumor cells” value in data set [5] and in data set [6] was “active” throughout.
As for `CC(=O)O[C@@]12CO[C@@H]1C[C@H](O)[C@@]1(C)C(=O)[C@H](O)C3=C(C)[C@@H](OC(=O)[C@H](O)[C@@H](NC(=O)OC(C)(C)C)c4ccccc4)C[C@@](O)([C@@H](OC(=O)c4ccccc4)[C@H]21)C3(C)C` [docetaxel, reference compound], the TGI in data set [1] (docetaxel 7.5 mg/kg IV QW) worked out at 74.9%; in data set [3] (docetaxel 5 mg/kg IV QW) it was 5.2%; in data set [3] (docetaxel 7.5 mg/kg IV QW), 17.7%. In addition, the “Mean Maximum BWL” value in data set [2] (docetaxel 7.5 mg/kg IV QW, Day 14) was 15% (Day 14). In addition, the results for the ΔAUC in data set [3] (docetaxel 5 mg/kg IV QW) and in data set [3] (docetaxel 7.5 mg/kg IV QW) were 9.0 and 18.4, respectively. Besides, the “Mean Maximum % BWL” value is 0% in data set [4] (docetaxel 5 mg/kg IV QW, Day 0 to Day 21) and 2.5% (Day 21) in data set [4] (docetaxel 7.5 mg/kg IV QW, Day 21).
